Test results as given in patent US20080085882A1, “Compositions and Methods for Potentiation of Cancer Agents” (priority 2006, published 2008).
“Also recorded” adds a separate entry of the source.

Experiments:
WT strain BY4741 = assay: cisplatin/NSC combination treatments, fraction of colony forming cells; format: cell-based, yeast; conditions: 2 hours at 30° C. in water
Protocol: This enhancement of cisplatin sensitivity by NSC109268 was quantified. We also tested the chemically related compound NSC 109272. Cells of a logarithmic-phase culture of WT strain BY4741 were incubated for 2 hours at 30° C. in water containing the combinations of NSC109268 or NSC109272 and cisplatin shown in Table 2. The fraction of colony forming cells was determined on solid YPD medium.

[1] = test system: cisplatin resistant ovarian cancer cells (2008/IC3); assay: MTS cell survival, cisplatin plus NSC109268; format: cell-based, human
Protocol: (§1) Based on the cisplatin result in yeast, the inventors explored if a similar effect can be detected in human cells. […] Survival was determined in the presence or absence of compound NSC109268 using Cell Titer 96 Aqueous Cell Proliferation Assay kit from Promega, Madison, Wis. All cultures, unless specified otherwise, were maintained in growth medium composed of RPMI with 2 mM L-glutamine, 100 units/ml of Penicillin, and 100 μg/ml Streptomycin, supplemented with 10% fetal bovine serum under a humidified atmosphere of 95% air, 5% CO2 at 37° C. Briefly, cells were plated in 96-well tissue culture plates at 5-8×10^3 cells/well and allowed to attach overnight in growth medium. The following day, cells were rinsed twice in DMEM and further incubated in serum-free medium for 24 h. Cells were then treated with cisplatin [0-100 μM] in the presence of NSC109268 [0, 1, 2, 3 μM] for 48 h. Dose-response studies were initially done to determine appropriate dosages for the drugs and their vehicles. Negative controls involved the use of DMF, vehicle for cisplatin (˜0 μM) or DMSO, vehicle for NSC109268 (˜0 μM). […] MTS is taken up by live cells where it is reduced by the dehydrogenase enzymes and released back into the culture medium as a yellow formazan product. The amount of formazan product measured in terms of absorbances is directly proportional to the number of live cells in the cultures. Thus, absorbance readings at 490 nm were taken after 1 h and converted to cell numbers based on standard curves. Standard curves were done using cells maintained in RPMI in 96-well plates at the same time. Experiments were done in triplicate wells at least 4 times. Statistical analyses were done using ANOVA. […] Several series of studies were conducted using DMF (solvent control=0) and various concentrations of cisplatin in combination with (DMSO (solvent control=0), 1 μM NSC1092682 μM NSC109268, and 3 μM NSC109268. Survival was plotted in a logarithmic scale against cisplatin dose, with different symbols indicating the amount of added NSC109268 (see FIG. 1A insert), for the RWPE-1 normal prostate cell line (FIG. 1A), PC3 prostate cancer cells (FIG. 1B), cisplatin-sensitive ovarian cancer cells (2008) (FIG. 1C) and cisplatin-resistant ovarian cancer cells (2008/IC3) (FIG. 1D).

[2] = test system: checkpoint activation (DNA-damage-induced interaction between two selected checkpoint proteins); assay: two-hybrid assay-based yeast screen for agents that modify cell cycle checkpoint activation; conditions: in response to the topoisomerase I inhibitor camptothecin
Protocol: A two-hybrid assay-based yeast system was used to screen small-molecule compound libraries for agents that modify cell cycle checkpoint activation. Checkpoint activation is measured as the DNA-damaged-induced increased interaction between two selected checkpoint proteins.

wild-type yeast = assay: sensitivity towards DNA damaging agents, survival of macrocolony forming cells, wild type; format: cell-based; parameters: key: +: increased resistance; −: decreased resistance; conditions: strain WT
Protocol: (§2) As another example, the drug streptonigrin was used as a double-strand break inducing drug. After treatment of logarithmically growing yeast cultures for 1 h at 30° C. in YPD medium (1% yeast extract, 2% peptone, 2% dextrose), lethality was measured by inability of colony formation on YPD agar plates. […] The used concentration of 50-100 μg/ml results in 80% survival after 1 h incubation.
(§3) In summary, the incubation of logarithmic phase cells of wild-type yeast and a double-strand break repair deficient derivative (rad51) (Amberg, D. C., D. J. Burke, and J. N. Strathern. 2005. Methods in Yeast Genetics: A Cold Spring Harbor Laboratory Course Manual, 2005 Edition. Cold Spring Harbor Laboratory Press, Cold Spring Harbor, N.Y.) with compound NSC109268 had the following effects on sensitivity towards DNA damaging agents, measured as survival of macrocolony forming cells (+increased resistance, −decreased resistance, ND not determined): Table 1 summarizes the effects of NSC109268 on senstivity towards DNA Damaging Agents in repair-proficient wild type and rad 51^− cells.

[3] = test system: double-strand break repair deficient derivative (rad51) yeast; assay: sensitivity towards DNA damaging agents, survival of macrocolony forming cells, rad51; format: cell-based; parameters: key: +: increased resistance; −: decreased resistance; conditions: strain rad51
Protocol: as §2, §3

yeast cultures [4] = assay: lethality of logarithmically growing yeast cultures, colony formation on YPD agar; format: cell-based
Protocol: as §2
Curiously, the opposite effect was found for other agents such hydrogen peroxide (H2O2), an oxidative agent causing base damage and strand breaks.

[5] = test system: PC3 prostate adenocarcinoma cells; assay: MTS cell survival, cisplatin plus NSC109268; format: cell-based, human
Protocol: as §1

[6] = test system: cisplatin sensitive ovarian cancer cells (2008); assay: MTS cell survival, cisplatin plus NSC109268; format: cell-based, human; conditions: cisplatin 0-100 μM, NSC109268 0-3 μM, 48 h
Protocol: Based on the cisplatin result in yeast, the inventors explored if a similar effect can be detected in human cells. […] Survival was determined in the presence or absence of compound NSC109268 using Cell Titer 96 Aqueous Cell Proliferation Assay kit from Promega, Madison, Wis. All cultures, unless specified otherwise, were maintained in growth medium composed of RPMI with 2 mM L-glutamine, 100 units/ml of Penicillin, and 100 μg/ml Streptomycin, supplemented with 10% fetal bovine serum under a humidified atmosphere of 95% air, 5% CO2 at 37° C.
Briefly, cells were plated in 96-well tissue culture plates at 5-8×10^3 cells/well and allowed to attach overnight in growth medium. The following day, cells were rinsed twice in DMEM and further incubated in serum-free medium for 24 h. Cells were then treated with cisplatin [0-100 μM] in the presence of NSC109268 [0, 1, 2, 3 μM] for 48 h. […]
To determine the number of surviving cells, cells were incubated in 333 μg/ml MTS [3-(4,5-dimethylthiazol-2-yl)-5-(3-carboxymethoxyphenyl)-2-(4-sulfophenyl)-2H-tetrazolium], a tetrazolium salt, and 25 μM phenazine methosulfate (PMS), an electron coupling reagent. […] The amount of formazan product measured in terms of absorbances is directly proportional to the number of live cells in the cultures. Thus, absorbance readings at 490 nm were taken after 1 h and converted to cell numbers based on standard curves. […]

yeast cultures [7] = assay: lethality of logarithmically growing yeast cultures, colony formation on YPD agar; format: cell-based; remark: listed apart in the source
[8] = cisplatin 0-100 μM, NSC109268 0-3 μM, 48 h
[9] = compared to cisplatin-sensitive cells (2008)

Question: How did the “cell survival (fraction of colony forming cells)” value (WT strain BY4741; NSC109272 1.5 nM + 165 μM Cisplatin) turn out when “Copper, di-μ-chlorobis[1-[(4-morpholinyl-κN4)methyl]-2-naphthalenolato-κO]di-(9CI) [NSC109272]” was run?
Answer: The value was 4%.

Question: What about the “cell survival (fraction of colony forming cells)” value (WT strain BY4741; NSC109272 1.5 nM, 0 μM Cisplatin) of the same molecule?
Answer: Its value is 70%.

Question: How did the “cell survival (fraction of colony forming cells)” value (WT strain BY4741; 33 μM Cisplatin alone) turn out when `N.N.[Cl][Pt][Cl]` [Cisplatin, cis-Diammineplatinum (II) dichloride, reference compound] was run?
Answer: The value was 71%.

Question: And the “cell survival (fraction of colony forming cells)” value (WT strain BY4741; 82.5 μM Cisplatin alone)?
Answer: Its value is 44.5%.

Question: What about the “cell survival (fraction of colony forming cells)” value (WT strain BY4741; 165 μM Cisplatin alone) of the same molecule?
Answer: The value was 21%.

Question: What about the survival ([1]; 5 μM of cisplatin without any added NSC109268, 48 h) of the same molecule?
Answer: The survival was 85%.

Question: With “Copper, di-μ-chlorobis[1-[(1-piperidinyl-κN)methyl]-2-naphthalenolato-κO]di-(9CI) [NSC109268]” as the molecule, how does the “effect on checkpoint activation” value [2] read?
Answer: Its value is “interfere with checkpoint activation”.

Question: And the “effect on sensitivity towards DNA damaging agent” value (wild-type yeast; Cisplatin)?
Answer: The value was “−”.

Question: And the “effect on sensitivity towards DNA damaging agent” value (wild-type yeast; MNNG)?
Answer: The value was “+”.

Question: And the “effect on sensitivity towards DNA damaging agent” value (wild-type yeast; Streptonigrin)?
Answer: The value was “+”.

Question: What about the “effect on sensitivity towards DNA damaging agent” value ([3]; Cisplatin) of the same molecule?
Answer: Its value is “−”.

Question: And the “effect on sensitivity towards DNA damaging agent” value ([3]; Ionizing radiation (137Cs))?
Answer: The value was “+”.

Question: What about the “effect on sensitivity towards DNA damaging agent” value ([3]; Phleomycin) of the same molecule?
Answer: Its value is “+”.

Question: What about the survival (yeast cultures [4]; compound itself, 50-100 μg/ml, 1 h incubation) of the same molecule?
Answer: Its survival is 80%.

Question: And the “effect on sensitivity to DNA damaging agent” value (“effect … to DNA damaging agent” below) (yeast cultures [4]; hydrogen peroxide (H2O2), simultaneous exposure)?
Answer: The value was “sensitivity is enhanced”.

Question: And the “effect on lethality of DNA damaging agent” value (yeast cultures [4]; streptonigrin, 1 h at 30° C. in YPD medium)?
Answer: Its value is “protective effect”.

Question: What about the “toxicity of the compound itself” value (yeast cultures [4]; yeast, 1 h at 30° C. in YPD medium) of the same molecule?
Answer: Its value is “moderate toxicity”.

Question: And the “cell survival (fraction of colony forming cells)” value (WT strain BY4741; NSC109268 7.4 nM + 33 μM Cisplatin)?
Answer: The value was 29%.

Question: What about the “cell survival (fraction of colony forming cells)” value (WT strain BY4741; NSC109268 7.4 nM + 82.5 μM Cisplatin) of the same molecule?
Answer: The value was 25.5%.

Question: What about the “cell survival (fraction of colony forming cells)” value (WT strain BY4741; NSC109268 7.4 nM + 165 μM Cisplatin) of the same molecule?
Answer: The value was 0.09%.

Question: And the “cell survival (fraction of colony forming cells)” value (WT strain BY4741; NSC109268 7.4 nM, 0 μM Cisplatin)?
Answer: The value was 79.5%.

Question: And the “cell survival (fraction of colony forming cells)” value (WT strain BY4741; NSC109268 37 nM + 165 μM Cisplatin)?
Answer: Its value is <0.4%.

Question: And the “cell survival (fraction of colony forming cells)” value (WT strain BY4741; NSC109268 37 nM, 0 μM Cisplatin)?
Answer: Its value is 10%.

Question: What about the “effect of combination with cisplatin on survival” value (from here on “effect of combination”) [5, 8] of the same molecule?
Answer: The value was “synergistically enhanced; also recorded: increases cellular sensitivity to cisplatin”.

Question: And the “toxicity of NSC109268 alone” value ([5]; range of concentrations that increases sensitivity to cisplatin)?
Answer: The value was “(virtually) non-toxic”.

Question: And the survival ([1]; 2 μM NSC109268 without any cisplatin, 48 h)?
Answer: The survival was 38%.

Question: What about the measured survival ([1]; 5 μM cisplatin/2 μM combination treatment, 48 h) of the same molecule?
Answer: The measured survival was 4.5%.

Question: And the “survival expected if the effects were independent” value ([1]; 5 μM cisplatin/2 μM combination treatment, 85% of 38%)?
Answer: The value was 32%.

Question: And the “effect of combination” value [1, 8]?
Answer: The value was “synergistically enhanced”.

Question: And the “enhancement effect on cisplatin” value [1, 9]?
Answer: Its value is “much more pronounced”.

Question: And the “toxicity without added cisplatin” value [1, 9]?
Answer: The value was “much more toxic”.

Question: And the “effect of combination” value [6]?
Answer: Its value is “synergistically enhanced”.

Question: What about the “effect … to DNA damaging agent” value (yeast cultures [7]; alkylating agent (MMS)) of the same molecule?
Answer: Its value is “does not seem to affect sensitivity”.

Question: And the “effect on lethality of DNA damaging agent” value (yeast cultures [7]; ionizing radiation (137Cs γ-radiation))?
Answer: Its value is “less significantly”.

Question: What about the “effect … to DNA damaging agent” value (yeast cultures [7]; phleomycin) of the same molecule?
Answer: The value was “does not seem to affect sensitivity”.

Question: And the “effect … to DNA damaging agent” value (yeast cultures [7]; ultraviolet radiation (UV-C))?
Answer: Its value is “does not seem to affect sensitivity”.
